Structures can show the parent of a compound that is named as a salt. Where two headings read alike, the source gives them in different places.
How the values were obtained:
[1] = Phase I clinical trial: plasma concentrations after weekly intravenous infusion (pharmacokinetics); format: in vivo, human; conditions: human, plasma, iv; for concentration at 1 h / concentration at 1 h after end of infusion: 1 hr after infusion; for concentration at 24 h after end of infusion / concentration at 24 h: 24 hr after infusion; for concentration at 12 h after end of infusion / concentration at 12 h: 12 hr after infusion; for concentration at 2 h / concentration at 2 h after end of infusion: 2 hr after infusion; for concentration at 4 h / concentration at 4 h after end of infusion: 4 hr after infusion; for Cmax: intravenous administration of a single dose, read-out: estimated Cmax
Description: (§1) An open-label, dose-escalating, multiple-dose study to define the safety, tolerability and pharmacokinetics of weekly intravenous administration of (4-Methoxy-phenyl)-methyl-(2-methyl-quinazolin-4-yl)-amine hydrochloride was performed. A dosing schedule (each 4 week cycle) was performed for (4-Methoxy-phenyl)-methyl-(2-methyl-quinazolin-4-yl)-amine hydrochloride weekly for 3 weeks with no infusion on the fourth week of each cycle. Subjects with refractory solid tumors were enrolled in cohorts of 3. During Cycle 1, subjects were hospitalized during each infusion of (4-Methoxy-phenyl)-methyl-(2-methyl-quinazolin-4-yl)-amine hydrochloride and remained for observation and safety evaluation for approximately 24 hours following the end of the infusion. All subjects had continuous telemetry for 2 hours prior to infusion, for 1-2 hour infusion and for 3 hours after the end of the infusion. Any clinically significant electrocardiographic (ECG) wave form abnormality was recorded and prolongation of the monitoring period extended at the discretion of the principal investigator.
Blood samples were collected prior to dosing, at the end of the infusion, and 1, 2, 4, 6, 12, and 24 hours after the infusion. This sampling schedule occurred on Days 1 and 15 with administration of the first and third doses. Samples were collected into tubes containing EDTA and stored on ice until centrifuged. The plasma was frozen at approximately −20° C. in labeled, plastic tubes, or vials, and tightly capped. The samples were shipped to Myriad Pharmaceuticals, Inc. for analysis of (4-Methoxy-phenyl)-methyl-(2-methyl-quinazolin-4-yl)-amine hydrochloride. Pharmacokinetic analysis was conducted using WinNonlin 4.0®.

[2] = Phase I clinical trial: safety and tolerability in subjects with refractory solid tumors; format: in vivo, human
Description: as §1
Electrocardiograms were obtained prior to starting the infusion and within 30 minutes of the end of infusion for each infusion of the first cycle. Electrocardiograms on Day 1 were obtained in triplicate 5 minutes apart.
Neurocognitive assessments were made by administration of the Mini-Mental State Examination (MMSE), the Hopkins Verbal Learning and timed Grooved Pegboard tests before administration of the intravenous infusion and approximately 24 hours of the infusion at each weekly administration of the first cycle.
On days 1, 8, and 15 of each cycle, vital signs were obtained prior to the first dose, at 15, 30, and 60 minutes after the initiation of the infusion, and at 0.5, 1, 1.5, 2, and 4 hours after the end of the intravenous infusion. Vital signs at all time points beyond the start of the intravenous infusion included heart rate, blood pressure and respirations. Temperature was measured at the end of the infusion and 4 hours later.
Individual subjects were allowed to continue on repeated weekly×3 administrations every 28 days with no dose increase provided there was no unacceptable toxicity or disease progression.
Tumor response was evaluated by response evaluation criteria in solid tumors (RECIST) criteria. To prevent sever hypersensitivity reactions due to Cremophor® EL, subjects were premedicated with oral dexamethasone (20 mg) administered approximately 12 and 6 hours before the intravenous infusion with (4-Methoxy-phenyl)-methyl-(2-methyl-quinazolin-4-yl)-amine hydrochloride, diphenhydramine (50 mg) or its equivalent administered intravenously 30-60 minutes before (4-Methoxy-phenyl)-methyl-(2-methyl-quinazolin-4-yl)-amine hydrochloride, and cimetidine (300 mg) or ranitidine (50 mg) administered intravenously 30-60 minutes before (4-Methoxy-phenyl)-methyl-(2-methyl-quinazolin-4-yl)-amine hydrochloride.

[3] = 1 mg/m^2, Day 1, 1.0 mg/m^2 i.v., infusion 1 hr, LLOQ 1 ng/mL
[4] = 1 mg/m^2, Day 15, 1.0 mg/m^2 i.v., infusion 1 hr, LLOQ 1 ng/mL
[5] = 1.5 mg/m^2, Day 15, 1.5 mg/m^2 i.v., infusion 1 hr, LLOQ 1 ng/mL
[6] = 2.1 mg/m^2, Day 1, 2.1 mg/m^2 i.v., infusion 1 hr, LLOQ 1 ng/mL
[7] = 2.1 mg/m^2, Day 15, 2.1 mg/m^2 i.v., infusion 1 hr, LLOQ 1 ng/mL
[8] = 2.7 mg/m^2, Day 1, 2.7 mg/m^2 i.v., infusion 1 hr, LLOQ 1 ng/mL
[9] = 3.3 mg/m^2, Day 1, 3.3 mg/m^2 i.v., infusion 2 hr, LLOQ 1 ng/mL
[10] = 3.3 mg/m^2, Day 15, 3.3 mg/m^2 i.v., infusion 2 hr, LLOQ 1 ng/mL
[11] = 3.9 mg/m^2, Day 15, 3.9 mg/m^2 i.v., infusion 2 hr, LLOQ 1 ng/mL
[12] = 4.5 mg/m^2, Day 15, 4.5 mg/m^2 i.v., infusion 2 hr, LLOQ 1 ng/mL

Structure (SMILES): COc1ccc(N(C)c2nc(C)nc3ccccc23)cc1 [(4-Methoxy-phenyl)-methyl-(2-methyl-quinazolin-4-yl)-amine hydrochloride]
- concentration at 1 h ([1]; 0.3 mg/m^2, Day 15, 0.3 mg/m^2 i.v., infusion 1 hr, LLOQ 1 ng/mL): 1.43 ng/mL
- concentration at 24 h after end of infusion ([1]; 0.6 mg/m^2, Day 1, 0.6 mg/m^2 i.v., infusion 1 hr, LLOQ 1 ng/mL): 5.89 ng/mL
- concentration at 12 h after end of infusion [1, 3]: 3.62 ng/mL
- concentration at 24 h after end of infusion [1, 3]: 1.98 ng/mL
- concentration at 1 h [1, 4]: 2.24 ng/mL
- concentration at 2 h [1, 4]: 1.23 ng/mL
- concentration at 4 h [1, 4]: 1.26 ng/mL
- concentration at 12 h after end of infusion ([1]; 1.5 mg/m^2, Day 1, 1.5 mg/m^2 i.v., infusion 1 hr, LLOQ 1 ng/mL): 1.95 ng/mL
- concentration at 4 h [1, 5]: 1.01 ng/mL
- concentration at 6 h ([1]; 1.5 mg/m^2, Day 15, 1.5 mg/m^2 i.v., infusion 1 hr, 6 hr after infusion, LLOQ 1 ng/mL): 1.47 ng/mL
- concentration at 12 h [1, 5]: 2.24 ng/mL
- concentration at 24 h [1, 5]: 1.63 ng/mL
- concentration at 1 h after end of infusion [1, 6]: 4.06 ng/mL
- concentration at 2 h after end of infusion [1, 6]: 3.28 ng/mL
- concentration at 4 h after end of infusion [1, 6]: 2.64 ng/mL
- concentration at 6 h after end of infusion ([1]; 2.1 mg/m^2, Day 1, 2.1 mg/m^2 i.v., infusion 1 hr, 6 hr after infusion, LLOQ 1 ng/mL): 1.12 ng/mL
- concentration at 12 h after end of infusion [1, 6]: 1.09 ng/mL
- concentration at 1 h [1, 7]: 4.81 ng/mL
- concentration at 4 h [1, 7]: 2.05 ng/mL
- concentration at 12 h [1, 7]: 1.09 ng/mL
- concentration at 24 h [1, 7]: 2.63 ng/mL
- concentration at 1 h after end of infusion [1, 8]: 6.16 ng/mL
- concentration at 2 h after end of infusion [1, 8]: 4.37 ng/mL
- concentration at 4 h after end of infusion [1, 8]: 3.16 ng/mL
- concentration at 6 h after end of infusion ([1]; 2.7 mg/m^2, Day 1, 2.7 mg/m^2 i.v., infusion 1 hr, 6 hr after infusion, LLOQ 1 ng/mL): 2.09 ng/mL
- concentration at 12 h after end of infusion [1, 8]: 2.35 ng/mL
- concentration at 24 h after end of infusion [1, 8]: 1.36 ng/mL
- concentration at 12 h ([1]; 2.7 mg/m^2, Day 15, 2.7 mg/m^2 i.v., infusion 1 hr, LLOQ 1 ng/mL): 3.95 ng/mL
- concentration at 2 h [1, 9]: 6.03 ng/mL
- concentration at 24 h [1, 9]: 1.73 ng/mL
- concentration at 1 h ([1]; 3.3 mg/m^2, Day 15, 3.3 mg/m^2 i.v., infusion 1 hr, LLOQ 1 ng/mL): 14.7 ng/mL
- concentration at 1 h [1, 10]: 6.84 ng/mL
- concentration at 2 h [1, 10]: 3.8 ng/mL
- concentration at 24 h [1, 10]: 1.48 ng/mL
- concentration at 1 h [1, 11]: 10.6 ng/mL
- concentration at 2 h [1, 11]: 10.4 ng/mL
- concentration at 4 h [1, 11]: 8.24 ng/mL
- concentration at 24 h ([1]; 4.5 mg/m^2, Day 1, 4.5 mg/m^2 i.v., infusion 2 hr, LLOQ 1 ng/mL): 1.17 ng/mL
- concentration at 1 h [1, 12]: 13.6 ng/mL
- concentration at 2 h [1, 12]: 13.1 ng/mL
- Cmax ([1]; Day 1): ~14 ng/mL
- Cmax ([1]; Day 15): ~26 ng/mL
- bradycardia ([2]; Phase 1 Trial): occasional episodes of bradycardia
- dose limiting toxicity ([2]; Phase 1 Trial): vascular in nature, manifested by an acute coronary syndrome
- intratumor bleeding ([2]; Phase 1 Trial): incidences of intratumor bleeding
- systolic blood pressure ([2]; Phase 1 Trial): dose-related increase
- effects on cardiac conduction (PR, QRS or QTc) ([2]; Phase 1 Trial, ECG): no significant effects
- cytotoxity peripherally ([2]; Phase 1 Trial, at the administered doses): no evidence of cytotoxity peripherally
- safety and tolerability ([2]; Phase 1 Trial, weekly intravenous administration): safe and tolerable
- dose ranges found to be safely tolerated ([2]; human patients): less than 3.3 mg/m^2

From patent publication US20100087457A1, “DOSAGES AND METHODS FOR THE TREATMENT OF CANCER” (Myriad Pharmaceuticals, Inc, priority 2007, published 2010)
